Laboratory results as given in patent publication US12570648B2, “6,7-dihydro-5H-pyrido[2,3-c]pyridazine derivatives and related compounds as Bcl-xL protein inhibitors and pro-apoptotic agents for treating cancer” (LES LABORATOIRES SERVIER, priority 2019, dated 2026).

Key:
H146 cells = experiment: H146 cell viability using MTT assay; format: cell-based; details: Homo sapiens, NCI-H146, 48 h exposure
Experimental: MTT colorimetric assay is based on the mitochondrial reduction of tetrazolium salt by living cells. The viable cell number is proportional to the production of formazan salts, which can be read spectrophotometrically at 540 nm.
MOLT-4 and H146 cells were purchased from ATCC and cultivated in RPMI 1640 supplemented with 10% heat inactivated fetal bovine serum, penicillin (100 IU/ml), streptomycin (100 μg/ml) and L-glutamine (2 mM). Cells were cultured at 37° C. in a humidified atmosphere containing 5% CO2. Cells were seeded in 96 microwell plates (150p per well) and exposed to the compounds for 48 h (3.16 fold serially diluted; 9 concentrations each, triplicates). At the end of incubation time, 15 μL of MTT solution (5 mg/ml) were added per well and the cells were incubated for another 4 h. Then, 100 μL of 10% Sodium Dodecyl Sulfate (SDS)/HCl 10 mM were added per well and the plate was incubated overnight, before measurement of optical density at 540 nm. IC50s were calculated using standard four-parametric curve fitting.

MOLT-4 cells = experiment: MOLT-4 cell viability using MTT assay; format: cell-based; details: Homo sapiens, MOLT-4, 48 h, 48 h exposure
Experimental: MTT colorimetric assay is based on the mitochondrial reduction of tetrazolium salt by living cells.
Cells were cultured at 37° C. in a humidified atmosphere containing 5% CO2. […] At the end of incubation time, 15 μL of MTT solution (5 mg/ml) were added per well and the cells were incubated for another 4 h. […] IC50s were calculated using standard four-parametric curve fitting.

[1] = molecular target: His-His-(EK)-hsBCLXL(2-197)[N197C] (Homo sapiens (Human), UniProt Q07817, N197C); experiment: Fluorescence quenching assay; format: binding; details: 1 nM Cy5-labelled protein, 400 nM PUMA peptide, 2 hours at 23° C.; KI determined from IC50
Procedure, shortened: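 Ki values converted from IC50s, measured as fluorescence increase (Ex 620/Em 680 nm) after 2 h at 23° C. Compounds were titrated over 11 points against 1 nM Cy5-BCL-xL and 400 nM quencher-tagged PUMA peptide in pH 7.4 HEPES (10 mM), 150 mM NaCl, 0.05% Tween 20, 5% DMSO.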

Chain of His-His-(EK)-hsBCLXL(2-197)[N197C] (Q07817 2-197 N197C): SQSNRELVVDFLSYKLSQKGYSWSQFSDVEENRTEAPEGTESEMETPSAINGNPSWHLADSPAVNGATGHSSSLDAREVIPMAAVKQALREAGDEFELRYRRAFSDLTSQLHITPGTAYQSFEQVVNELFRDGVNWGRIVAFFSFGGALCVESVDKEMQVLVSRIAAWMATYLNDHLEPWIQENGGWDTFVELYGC

Row | Structure (SMILES) | IC50 (H146 cells) | IC50 (MOLT-4 cells) | Ki [1]
1 | Cc1c(Nc2nc3ccccc3s2)nnc2c1CCN2c1nc(C(=O)O)cs1 [Example 11, 2-{3-[(1,3-Benzothiazol-2-yl)amino]-4-methyl-5H,6H,7H-pyrrolo[2,3-c]pyridazin-7-yl}-1,3-thiazole-4-carboxylic acid] | 6360 nM | 2430 nM | –
2 | CNCC#Cc1ccc(OCCCc2sc(N3CCc4c3nnc(Nc3nc5ccccc5s3)c4C)nc2C(=O)O)c(F)c1 [Example 37, 2-[3-(1,3-Benzothiazol-2-ylamino)-4-methyl-5,6-dihydropyrrolo[2,3-c]pyridazin-7-yl]-5-[3-[2-fluoro-4-[3-(methylamino)prop-1-ynyl]phenoxy]propyl]thiazole-4-carboxylic acid] | 10.2 nM | 4.61 nM | 0.0077 nM
3 | CNCC#Cc1ccc(OCCCc2sc(N3CC(O)Cc4c3nnc(Nc3nc5ccccc5s3)c4C)nc2C(=O)O)c(F)c1 (stereo not shown) [Example 38, 2-[3-(1,3-Benzothiazol-2-ylamino)-6-hydroxy-4-methyl-6,7-dihydro-5H-pyrido[2,3-c]pyridazin-8-yl]-5-[3-[2-fluoro-4-[3-(methylamino)prop-1-ynyl]phenoxy]propyl]thiazole-4-carboxylic acid] | 22.1 nM | 59.4 nM | 0.0029 nM
4 | Cc1c(Nc2nc3ccccc3s2)nnc2c1CCCN2c1nc(C(=O)O)c(CCCOc2ccc(C#CCN3C[C@@H]4[C@H](C3)C4(F)F)cc2F)s1 [Example 63, 2-[3-(1,3-Benzothiazol-2-ylamino)-4-methyl-6,7-dihydro-5H-pyrido[2,3-c]pyridazin-8-yl]-5-[3-[4-[3-[(1S,5R)-6,6-difluoro-3-azabicyclo[3.1.0]hexan-3-yl]prop-1-ynyl]-2-fluoro-phenoxy]propyl]thiazole-4-carboxylic acid] | 20.2 nM | – | 0.081 nM
5 | Cc1c(Nc2nc3ccccc3s2)nnc2c1CCCN2c1nc(C(=O)O)c(CCCOc2ccc(C#CCN(C)CC[C@H](O)CO)cc2F)s1 [Example 148, 2-[3-(1,3-benzothiazol-2-ylamino)-4-methyl-6,7-dihydro-5H-pyrido[2,3-c]pyridazin-8-yl]-5-[3-[4-[3-[[(3S)-3,4-dihydroxybutyl]-methyl-amino]prop-1-ynyl]-2-fluoro-phenoxy]propyl]thiazole-4-carboxylic acid] | – | 0.277 nM | 0.0059 nM
6 | Cc1c(Nc2nc3ccccc3s2)nnc2c1CCCN2c1ccc(-c2cnn(CC34CC5(C)CC(C)(C3)CC(OCCNCc3ccc(O)cc3)(C5)C4)c2C)c(C(=O)O)n1 [Example 149, 6-[3-(1,3-benzothiazol-2-ylamino)-4-methyl-6,7-dihydro-5H-pyrido[2,3-c]pyridazin-8-yl]-3-[1-[[3-[2-[(4-hydroxyphenyl)methylamino]ethoxy]-5,7-dimethyl-1-adamantyl]methyl]-5-methyl-pyrazol-4-yl]pyridine-2-carboxylic acid] | – | 0.982 nM | 0.0037 nM
7 | Cc1c(Nc2nc3ccccc3s2)nnc2c1CCCN2c1ccc(-c2cnn(CC34CC5(C)CC(C)(C3)CC(OCCN(C)CCO)(C5)C4)c2C)c(C(=O)O)n1 [Example 150, 6-[3-(1,3-benzothiazol-2-ylamino)-4-methyl-6,7-dihydro-5H-pyrido[2,3-c]pyridazin-8-yl]-3-[1-[[3-[2-[2-hydroxyethyl(methyl)amino]ethoxy]-5,7-dimethyl-1-adamantyl]methyl]-5-methyl-pyrazol-4-yl]pyridine-2-carboxylic acid] | – | 0.219 nM | 0.0015 nM
8 | COCCCN(C)CCOC12CC3(C)CC(C)(CC(Cn4ncc(-c5ccc(N6CCCc7c6nnc(Nc6nc8ccccc8s6)c7C)nc5C(=O)O)c4C)(C3)C1)C2 [Example 151, 6-[3-(1,3-benzothiazol-2-ylamino)-4-methyl-6,7-dihydro-5H-pyrido[2,3-c]pyridazin-8-yl]-3-[1-[[3-[2-[3-methoxypropyl(methyl)amino]ethoxy]-5,7-dimethyl-1-adamantyl]methyl]-5-methyl-pyrazol-4-yl]pyridine-2-carboxylic acid] | – | 0.0824 nM | 0.0015 nM
9 | Cc1c(Nc2nc3ccccc3s2)nnc2c1CCCN2c1ccc(-c2cnn(CC34CC5(C)CC(C)(C3)CC(OCCN(C)CCCCO)(C5)C4)c2C)c(C(=O)O)n1 [Example 153, 6-[3-(1,3-benzothiazol-2-ylamino)-4-methyl-6,7-dihydro-5H-pyrido[2,3-c]pyridazin-8-yl]-3-[1-[[3-[2-[4-hydroxybutyl(methyl)amino]ethoxy]-5,7-dimethyl-1-adamantyl]methyl]-5-methyl-pyrazol-4-yl]pyridine-2-carboxylic acid] | – | 0.229 nM | 0.0012 nM
10 | Cc1c(Nc2nc3ccccc3s2)nnc2c1CCCN2c1ccc(-c2cnn(CC34CC5(C)CC(C)(CC(CCCN6CCCC6)(C5)C3)C4)c2C)c(C(=O)O)n1 [Example 166, 6-[3-(1,3-benzothiazol-2-ylamino)-4-methyl-6,7-dihydro-5H-pyrido[2,3-c]pyridazin-8-yl]-3-[1-[[3,5-dimethyl-7-(3-pyrrolidin-1-ylpropyl)-1-adamantyl]methyl]-5-methyl-pyrazol-4-yl]pyridine-2-carboxylic acid] | – | 0.429 nM | 0.0027 nM
11 | Cc1c(Nc2nc3ccccc3s2)nnc2c1CCCN2c1ccc(-c2cnn(CC34CC5(C)CC(C)(CC(CCCN(C)C)(C5)C3)C4)c2C)c(C(=O)O)n1 [Example 167, 6-[3-(1,3-benzothiazol-2-ylamino)-4-methyl-6,7-dihydro-5H-pyrido[2,3-c]pyridazin-8-yl]-3-[1-[[3-[3-(dimethylamino)propyl]-5,7-dimethyl-1-adamantyl]methyl]-5-methyl-pyrazol-4-yl]pyridine-2-carboxylic acid] | – | 0.0532 nM | 0.0019 nM

Results, then the compound that gave them:

Row | IC50 (H146 cells) | IC50 (MOLT-4 cells) | Ki [1] | Structure (SMILES)
12 | – | 0.291 nM | 0.0029 nM | Cc1c(Nc2nc3ccccc3s2)nnc2c1CCCN2c1ccc(-c2cnn(CC34CC5(C)CC(C)(CC(CCCN6CCN(C)CC6)(C5)C3)C4)c2C)c(C(=O)O)n1 [Example 168, 6-[3-(1,3-benzothiazol-2-ylamino)-4-methyl-6,7-dihydro-5H-pyrido[2,3-c]pyridazin-8-yl]-3-[1-[[3,5-dimethyl-7-[3-(4-methylpiperazin-1-yl)propyl]-1-adamantyl]methyl]-5-methyl-pyrazol-4-yl]pyridine-2-carboxylic acid]
13 | – | 0.787 nM | 0.0027 nM | Cc1c(Nc2nc3ccccc3s2)nnc2c1CCCN2c1ccc(-c2cnn(CC34CC5(C)CC(C)(CC(CCCNCCCO)(C5)C3)C4)c2C)c(C(=O)O)n1 [Example 170, 6-[3-(1,3-benzothiazol-2-ylamino)-4-methyl-6,7-dihydro-5H-pyrido[2,3-c]pyridazin-8-yl]-3-[1-[[3-[3-(3-hydroxypropylamino)propyl]-5,7-dimethyl-1-adamantyl]methyl]-5-methyl-pyrazol-4-yl]pyridine-2-carboxylic acid]
14 | – | 3.25 nM | 0.002 nM | Cc1c(Nc2nc3ccccc3s2)nnc2c1CCCN2c1ccc(-c2cnn(CC34CC5(C)CC(C)(CC(CCCNCC[C@H](O)CO)(C5)C3)C4)c2C)c(C(=O)O)n1 [Example 172, 6-[3-(1,3-benzothiazol-2-ylamino)-4-methyl-6,7-dihydro-5H-pyrido[2,3-c]pyridazin-8-yl]-3-[1-[[3-[3-[[(3S)-3,4-dihydroxybutyl]amino]propyl]-5,7-dimethyl-1-adamantyl]methyl]-5-methyl-pyrazol-4-yl]pyridine-2-carboxylic acid]
15 | – | 0.641 nM | 0.0022 nM | Cc1c(Nc2nc3cccc(F)c3s2)nnc2c1CCCN2c1ccc(-c2cnn(CC34CC5(C)CC(C)(C3)CC(OCCN3CCCC3)(C5)C4)c2C)c(C(=O)O)n1 [Example 178, 3-[1-[[3,5-dimethyl-7-(2-pyrrolidin-1-ylethoxy)-1-adamantyl]methyl]-5-methyl-pyrazol-4-yl]-6-[3-[(7-fluoro-1,3-benzothiazol-2-yl)amino]-4-methyl-6,7-dihydro-5H-pyrido[2,3-c]pyridazin-8-yl]pyridine-2-carboxylic acid]
16 | – | 0.0916 nM | 0.0029 nM | Cc1ccc2sc(Nc3nnc4c(c3C)CCCN4c3ccc(-c4cnn(CC56CC7(C)CC(C)(C5)CC(OCCN5CCCC5)(C7)C6)c4C)c(C(=O)O)n3)nc2c1 [Example 179, 3-[1-[[3,5-dimethyl-7-(2-pyrrolidin-1-ylethoxy)-1-adamantyl]methyl]-5-methyl-pyrazol-4-yl]-6-[4-methyl-3-[(5-methyl-1,3-benzothiazol-2-yl)amino]-6,7-dihydro-5H-pyrido[2,3-c]pyridazin-8-yl]pyridine-2-carboxylic acid]
